According to PMC6175062, “Gaining Mechanistic Insight Into Coproporphyrin I as Endogenous Biomarker for OATP1B‐Mediated Drug–Drug Interactions Using Population Pharmacokinetic Modeling and Simulation” (Clinical Pharmacology and Therapeutics, 2018):
Where two headings read alike, the source gives them in different places.

Legend:
OATP [1] = details: inhibitor 600 mg, rosuvastatin 5 mg; ref (20); cited from earlier work
[2] = system: OATP-mediated rosuvastatin uptake in human hepatocytes; assay: Rifampicin inhibition of rosuvastatin uptake in plated human hepatocytes; format: cell-based; details: RSV 2 µM; no pre-incubation effect, same donor
Description: (§1) The in vitro IC50 for rifampicin was assessed using CPI and RSV as OATP probe substrates in plated human hepatocytes. Cryopreserved human hepatocytes (Donor QQE, BioreclamationIVT, Baltimore, MD) were thawed and plated at a density of 350,000 cells (1). After culturing for 4h, hepatocytes were washed twice with Dulbecco's phosphate-buffered saline and pre-incubated for an hour with either buffer or rifampicin (0.01-100µM). Following pre-incubation, the medium was replaced with CPI (0.30µM) or RSV (2µM) containing rifampicin (0-100µM). Incubations were stopped after 3 or 5 minutes (for RSV and CPI,respectively) using the washing protocol described previously (2). Monolayers were lysed with water and frozen overnight and then prepared for protein quantification (BCA assay) and LC-MS/MS analysis.
(§2) Lysate concentrations were used to demine uptake rates over a series of free RIF concentrations measured in the medium and plotted as a % of the control to estimate RIF IC50 (Main article Figure 5A and Figure S1). RIF IC50 was determined using equation 1, where U denotes the uptake rate (% vs control) at the free inhibitor concentration in the incubation [I] (µM); R, the range of inhibition; B, the un-inhibitable background (%), and S, the slope factor (GraFit v6).

OATP2B1 = system: OATP2B1; design: method as in PMID 24617605, PMID 20102298; details: inconsistent data; read-out: IC50, OATP2B1 inhibition; cited from earlier work
MRP2 = system: MRP2; design: method as in PMID 28325716; details: read-out: IC50, inhibition of MRP2 transport of CPI; cited from earlier work
OATP [3] = assay: Model-based rifampicin in vivo OATP Ki using rosuvastatin as probe; design: species or system human; details: total (not corrected for fu); RSV as probe; read-out: KiRSV, total Ki estimated by the model, population estimate (SE%)
From the text: Based on the available plasma and urine data, a two compartment first order absorption and elimination model was used to describe the PK of RSV in the subjects. The model was parameterised using [picture] , volume of distribution of central ( [picture] ) and peripheral compartments ( [picture] ), inter-compartmental clearance ( [picture] ), biliary ( [picture] ) and renal ( [picture] ) clearance parameters. Analogous to CPI, inhibition of [picture] by RIF was incorporated in the rate of change of RSV plasma concentration, whereas it was assumed that RIF has no effect on RSV renal elimination (Eq 2). The rate of change of RSV amount in urine over time is shown in Eq3.
where [picture] and [picture] are RSV concentrations in central (plasma) and peripheral compartments, [picture] is the amount in depot compartment, [picture] is RSV amount in the urine and [picture] is RIF transporter inhibition constant using RSV as a probe. Change in RSV distribution parameters ( [picture] , [picture] and [picture] ) following co-administration with RIF was also investigated as a binary covariate where two sets of parameters were estimated under the two experimental conditions; RSV alone and RSV under treatment (presence of RIF).

[4] = design: method as in PMID 25813937; details: in humans; cited from earlier work
OATP1B1 = assay: Literature rifampicin in vitro Ki/IC50 in transfected OATP1B1 cells; format: cell-based
From the text: In addition, literature reported in vitro RIF inhibition data in OATP1B1-transfected cell lines using either CPI or other OATP1B1 probes (Table S5) were collated to understand further any potential differences between in vitro and in vivo estimated RIF inhibition parameters.

OATP [5] = biological target: OATP; design: method as in PMID 27170342; details: cited from earlier work
OATP1B = assay: Rifampicin inhibition of CPI uptake in plated human hepatocytes; format: cell-based; details: human, plated cryopreserved human hepatocytes, probe CPI (coproporphyrin I) 0.30 µM, CPI 0.30 µM
Description: as §1, §2

[6] = system: OATP1B-mediated CPI uptake in human hepatocytes; assay: as above; format: cell-based
Description: as §1, §2

CO[C@H]1/C=C/O[C@@]2(C)Oc3c(C)c(O)c4c(O)c(c(/C=N/N5CCN(C)CC5)c(O)c4c3C2=O)NC(=O)/C(C)=C\C=C\[C@H](C)[C@H](O)[C@@H](C)[C@@H](O)[C@@H](C)[C@H](OC(C)=O)[C@@H]1C [rifampicin]
Fold Change in AUC of rosuvastatin (OATP [1]): 4.7 fold | IC50 [2]: 1000 nM | IC50 (OATP2B1): 2100 to 81000 nM | IC50 (MRP2): 83000 nM | Ki (OATP [3]): 2230 nM | unbound liver-to-plasma concentration ratio [4]: 3.3 | range in literature RIF IC50 (Table S5) (OATP1B1): 30 fold | difference between in vivo Ki and literature in vitro data in OATP1B1-transfected cells (OATP1B1; depending on in vitro probe): up to 50 fold | Ki (OATP [5]; read-out: in vivo Ki estimated from pitavastatin clinical data): 230 nM | Ki (OATP [5]; read-out: in vivo Ki estimated from pravastatin clinical data): 190 nM | IC50 at 5 min (OATP1B; 60 min pre-incubation with buffer, read-out: IC50, CPI uptake, pre-incubation with buffer): 730 nM | IC50 at 5 min (OATP1B; 60 min pre-incubation with inhibitor, donor QQE, read-out: IC50, CPI uptake, pre-incubation with RIF): 300 nM | IC50 with CPI in hepatocytes, fold lower than reported values in transfected OATP1B1 cells [6]: up to 10 fold | increase in potency of inhibition of CPI uptake by preincubation with RIF [6]: ~2 fold | in vitro hepatocyte inhibition parameter (after preincubation) relative to in vivo Ki ([6]; in vitro higher than in vivo): 4 fold
